Active and inactive are the calls of the source. No cut-off for these calls is given here.
Assays:
[1] = test system: MG-63; test: Inhibition of cell invasion in human MG-63 cells at 0.1 to 0.4 uM measured after 48 hrs by crystal violet staining based transwell assay; format: functional; settings: dose 0.1-0.4 µM
[2] = test system: HOS-TE85; test: Inhibition of colony formation in human MNNG/HOS cells by crystal violet staining based analysis; format: functional, cell-based; settings: dose 0.1-0.4 µM, DDE = dose-dependent effect
[3] = test system: HOS-TE85; test: Inhibition of PDGF AA/BB-stimulated human MNNG/HOS cell proliferation measured after 48 hrs by MTT assay; format: functional, cell-based; settings: dose 0.1-1.6 µM, DDE = dose-dependent effect
[4] = test system: HOS-TE85; test: Inhibition of cell invasion in human MNNG/HOS cells at 0.1 to 0.4 uM measured after 48 hrs by crystal violet staining based transwell assay; format: functional; settings: dose 0.1-0.4 µM
[5] = test system: MG-63; test: Inhibition of PDGFRbeta expression in human MG-63 cells incubated for 48 hrs by Western blot analysis; format: functional, cell-based
[6] = test system: MG-63; test: Induction of cell cycle arrest in human MG-63 cells assessed as accumulation of cells at G0/G1 phase incubated for 48 hrs by propidium iodide staining based flow cytometry analysis; format: functional; settings: dose 0.1-0.4 µM, DDE = dose-dependent effect
[7] = test system: MG-63; test: Induction of DNA damage in human MG-63 cells assessed as tail DNA at 0.1 to 0.4 uM measured after 48 hrs by comet assay; format: functional, cell-based; settings: dose 0.1-0.4 µM
[8] = test system: HOS-TE85; test: Inhibition of colony formation in human MNNG/HOS cells at 0.2 uM by crystal violet staining based analysis; format: functional, cell-based
[9] = test system: HOS-TE85; test: In vivo inhibition of PDGFRbeta-mediated downstream signalling in human MNNG/HOS cells xenografted in BALB/c nude mouse assessed as phosphorylation of AKT in tumor tissue at 15 to 30 mg/kg/day, po for 14 days; format: functional, organism-based; settings: dose lower […], dose upper 30.0 mg/kg/day, time 14.0 day
[10] = test system: MG-63; test: Induction of apoptosis in human MG-63 cells at 0.4 uM after 48 hrs by Annexin V/PI staining based flow cytometric analysis; format: functional, cell-based
[11] = test system: HOS-TE85; test: Antimigratory activity against human MNNG/HOS cells assessed as expression of FAK by measuring fluorescence at 0.1 to 0.4 uM upto 48 hrs by DAPI staining based immunofluorescence microscopic analysis; format: functional, cell-based; settings: dose 0.1-0.4 µM
[12] = test system: HOS-TE85; test: Antiinvasive activity against human MNNG/HOS cells assessed as expression of FAK by measuring fluorescence at 0.1 to 0.4 uM upto 48 hrs by DAPI staining based immunofluorescence microscopic analysis; format: functional, cell-based; settings: dose 0.1-0.4 µM
[13] = biological target: T1, Platelet-derived growth factor receptor beta (Homo sapiens, UniProt P09619); test: Inhibition of PDGFRbeta-mediated downstream signalling in human MG-63 cells assessed as suppression of STAT3 phosphorylation at 0.1 uM measured after 48 hrs by western blot analysis; format: cell-based
T1 sequence (P09619 whole entry): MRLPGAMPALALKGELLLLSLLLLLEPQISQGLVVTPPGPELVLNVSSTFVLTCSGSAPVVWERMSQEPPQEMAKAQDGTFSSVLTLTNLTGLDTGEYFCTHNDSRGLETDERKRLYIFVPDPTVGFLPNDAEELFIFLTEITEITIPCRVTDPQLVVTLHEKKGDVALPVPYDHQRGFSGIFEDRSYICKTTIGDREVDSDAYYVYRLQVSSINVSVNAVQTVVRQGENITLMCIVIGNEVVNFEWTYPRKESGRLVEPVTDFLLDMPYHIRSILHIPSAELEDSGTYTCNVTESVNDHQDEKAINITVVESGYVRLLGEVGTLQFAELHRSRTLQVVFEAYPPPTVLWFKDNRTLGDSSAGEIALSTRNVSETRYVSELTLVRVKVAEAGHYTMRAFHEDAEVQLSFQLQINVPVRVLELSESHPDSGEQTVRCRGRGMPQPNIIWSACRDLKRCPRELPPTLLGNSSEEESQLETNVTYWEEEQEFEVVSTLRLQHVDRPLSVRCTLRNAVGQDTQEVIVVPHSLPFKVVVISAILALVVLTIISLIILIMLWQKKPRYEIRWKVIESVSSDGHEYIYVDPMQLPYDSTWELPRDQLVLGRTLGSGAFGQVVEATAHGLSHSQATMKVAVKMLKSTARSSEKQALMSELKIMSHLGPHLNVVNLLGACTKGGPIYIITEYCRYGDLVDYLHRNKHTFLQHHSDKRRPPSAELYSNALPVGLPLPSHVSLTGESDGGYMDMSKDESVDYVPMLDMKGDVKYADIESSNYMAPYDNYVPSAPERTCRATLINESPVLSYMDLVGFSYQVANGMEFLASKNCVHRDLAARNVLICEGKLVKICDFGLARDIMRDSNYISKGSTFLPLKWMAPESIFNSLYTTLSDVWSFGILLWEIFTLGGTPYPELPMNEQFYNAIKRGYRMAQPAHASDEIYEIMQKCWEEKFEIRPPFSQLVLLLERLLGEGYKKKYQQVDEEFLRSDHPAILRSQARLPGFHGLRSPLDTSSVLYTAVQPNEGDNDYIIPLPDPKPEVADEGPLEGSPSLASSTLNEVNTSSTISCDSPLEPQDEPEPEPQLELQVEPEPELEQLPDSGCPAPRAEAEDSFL

[14] = biological target: T1, Platelet-derived growth factor receptor beta; test: Inhibition of PDGFRbeta phosphorylation in human MG-63 cells incubated for 48 hrs by Western blot analysis; format: cell-based
[15] = test system: MG-63; test: Antiinvasive activity against human MG-63 cells assessed as reduction in cell spreading area upto 48 hrs by DAPI staining based immunofluorescence microscopic analysis; format: functional; settings: dose 0.1-0.4 µM, DDE = dose-dependent effect
[16] = test system: HOS-TE85; test: Antimigratory activity against human MNNG/HOS cells assessed as reduction in cell spreading area upto 48 hrs by DAPI staining based immunofluorescence microscopic analysis; format: functional; settings: dose 0.1-0.4 µM, DDE = dose-dependent effect
[17] = test system: MG-63; test: Inhibition of alpha tubulin expression in human MG-63 cells at 0.1 to 0.4 uM measured after 48 hrs by western blot analysis; format: functional, cell-based; settings: dose 0.1-0.4 µM
[18] = test system: MG-63; test: Inhibition of FAK expression in human MG-63 cells incubated for 48 hrs by Western blot analysis; format: functional, cell-based; settings: dose 0.1-0.4 µM, DDE = dose-dependent effect
[19] = test system: HOS-TE85; test: Antitumor activity against human MNNG/HOS cells xenografted in BALB/c nude mouse assessed as reduction in tumor growth at 15 to 30 mg/kg/day, po dosed for 14 days; format: functional, organism-based; settings: dose lower […], dose upper 30.0 mg/kg/day, time 14.0 day
[20] = test system: MG-63; test: Inhibition of cell adhesion in human MG-63 cells at 0.1 to 0.4 uM measured after 48 hrs by crystal violet staining based analysis; format: functional; settings: dose 0.1-0.4 µM
[21] = biological target: T1, Platelet-derived growth factor receptor beta; test: Inhibition of PDGFRbeta-mediated downstream signalling in human MNNG/HOS cells assessed as suppression of ERK phosphorylation at 0.1 to 0.4 uM measured after 48 hrs by western blot analysis; format: cell-based; settings: dose 0.1-0.4 µM
[22] = test system: HOS-TE85; test: Inhibition of alpha tubulin expression in human MNNG/HOS cells at 0.1 to 0.4 uM measured after 48 hrs by western blot analysis; format: functional, cell-based; settings: dose 0.1-0.4 µM
[23] = biological target: T1, Platelet-derived growth factor receptor beta; test: Inhibition of PDGFRbeta-mediated downstream signalling in human MNNG/HOS cells assessed as suppression of AKT phosphorylation at 0.1 to 0.4 uM measured after 48 hrs by western blot analysis; format: cell-based; settings: dose 0.1-0.4 µM
[24] = biological target: T1, Platelet-derived growth factor receptor beta; test: Inhibition of PDGFRbeta-mediated downstream signalling in human MG-63 cells assessed as suppression of AKT phosphorylation at 0.1 uM measured after 48 hrs by western blot analysis; format: cell-based
[25] = test system: MG-63; test: Inhibition of cell migration in human MG-63 cells at 0.1 to 0.4 uM measured for 48 hrs scratch wound healing migration assay; format: functional, cell-based; settings: dose 0.1-0.4 µM
[26] = test system: MG-63; test: Inhibition of alpha tubulin expression in human MG-63 cells assessed as effect on microtubule network at 0.1 to 0.4 uM by DAPI staining based immunofluorescence microscopic analysis; format: functional, cell-based; settings: dose 0.1-0.4 µM
[27] = biological target: T1, Platelet-derived growth factor receptor beta; test: Binding affinity to PDGFRbeta (unknown origin)
[28] = test system: HOS-TE85; test: Inhibition of alpha tubulin expression in human MNNG/HOS cells assessed as effect on microtubule network at 0.1 to 0.4 uM by DAPI staining based immunofluorescence microscopic analysis; format: functional, cell-based; settings: dose 0.1-0.4 µM
[29] = test system: HOS-TE85; test: In vivo inhibition of PDGFRbeta-mediated downstream signalling in human MNNG/HOS cells xenografted in BALB/c nude mouse assessed as phosphorylation of ERK in tumor tissue at 15 to 30 mg/kg/day, po for 14 days; format: functional, organism-based; settings: dose lower […], dose upper 30.0 mg/kg/day, time 14.0 day
[30] = test system: HOS-TE85; test: Induction of cell cycle arrest in human MNNG/HOS cells assessed as accumulation of cells at G2/M phase incubated for 48 hrs by propidium iodide staining based flow cytometry analysis; format: functional; settings: dose 0.1-0.4 µM, DDE = dose-dependent effect
[31] = test system: HOS-TE85; test: Inhibition of PDGFRbeta expression in human MNNG/HOS cells incubated for 48 hrs by Western blot analysis; format: functional, cell-based
[32] = biological target: T1, Platelet-derived growth factor receptor beta; test: Inhibition of PDGFRbeta-mediated downstream signalling in human MG-63 cells assessed as suppression of ERK phosphorylation at 0.1 uM measured after 48 hrs by western blot analysis; format: cell-based
[33] = test system: HOS-TE85; test: Antiproliferative activity against human MNNG/HOS cells xenografted in BALB/c nude mouse assessed as suppression of tumor growth at 15 to 30 mg/kg/day, po dosed for 14 days by immunohistochemistry analysis; format: functional, organism-based; settings: dose lower […], dose upper 30.0 mg/kg/day, time 14.0 day
[34] = test system: HOS-TE85; test: Inhibition of FAK expression in human MNNG/HOS cells incubated for 48 hrs by Western blot analysis; format: functional, cell-based; settings: dose 0.1-0.4 µM, DDE = dose-dependent effect
[35] = test system: HOS-TE85; test: Induction of apoptosis in human MNNG/HOS cells xenografted in BALB/c nude mouse at 15 to 30 mg/kg/day, po dosed for 14 days by immunohistochemistry analysis; format: functional, organism-based; settings: dose lower […], dose upper 30.0 mg/kg/day, time 14.0 day
[36] = biological target: Focal adhesion kinase 1 (Homo sapiens) (UniProt Q05397); test: Inhibition of FAK phosphorylation in human MG-63 cells incubated for 48 hrs by Western blot analysis; format: cell-based; settings: dose 0.1-0.4 µM, DDE = dose-dependent effect
Sequence of Focal adhesion kinase 1 (Homo sapiens) (Q05397 2-1052 limits assumed): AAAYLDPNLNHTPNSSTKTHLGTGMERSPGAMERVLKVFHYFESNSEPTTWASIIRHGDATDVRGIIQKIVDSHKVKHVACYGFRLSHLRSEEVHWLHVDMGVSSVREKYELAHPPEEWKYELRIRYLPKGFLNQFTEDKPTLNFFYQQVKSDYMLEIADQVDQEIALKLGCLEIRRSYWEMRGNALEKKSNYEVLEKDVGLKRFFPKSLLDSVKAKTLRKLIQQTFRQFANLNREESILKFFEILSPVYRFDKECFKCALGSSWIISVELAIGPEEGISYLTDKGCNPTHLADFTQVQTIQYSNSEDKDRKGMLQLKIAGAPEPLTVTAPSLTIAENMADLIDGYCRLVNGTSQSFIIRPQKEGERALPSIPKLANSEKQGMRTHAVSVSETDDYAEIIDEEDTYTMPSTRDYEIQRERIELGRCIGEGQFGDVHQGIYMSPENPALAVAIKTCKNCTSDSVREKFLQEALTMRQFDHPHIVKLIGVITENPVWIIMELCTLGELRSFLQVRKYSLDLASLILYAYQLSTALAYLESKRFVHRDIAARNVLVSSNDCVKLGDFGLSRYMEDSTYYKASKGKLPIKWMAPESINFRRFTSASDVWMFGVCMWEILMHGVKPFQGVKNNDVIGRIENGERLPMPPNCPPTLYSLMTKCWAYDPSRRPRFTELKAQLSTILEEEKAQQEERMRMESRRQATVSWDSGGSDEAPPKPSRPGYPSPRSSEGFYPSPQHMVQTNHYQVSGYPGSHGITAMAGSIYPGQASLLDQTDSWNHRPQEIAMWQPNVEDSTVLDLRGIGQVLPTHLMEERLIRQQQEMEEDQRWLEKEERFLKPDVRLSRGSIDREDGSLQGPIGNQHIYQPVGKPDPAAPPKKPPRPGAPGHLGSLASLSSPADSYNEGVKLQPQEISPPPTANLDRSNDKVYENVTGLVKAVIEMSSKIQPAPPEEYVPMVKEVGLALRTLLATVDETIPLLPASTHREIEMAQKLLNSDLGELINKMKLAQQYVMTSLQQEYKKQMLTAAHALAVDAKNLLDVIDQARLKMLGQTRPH

[37] = test system: HOS-TE85; test: Induction of DNA damage in human MNNG/HOS cells assessed as tail DNA at 0.1 to 0.4 uM measured after 48 hrs by comet assay; format: functional, cell-based; settings: dose 0.1-0.4 µM
[38] = test system: MG-63; test: Inhibition of PDGF AA/BB-stimulated human MG-63 cell proliferation measured after 48 hrs by MTT assay; format: functional, cell-based; settings: dose 0.1-1.6 µM, DDE = dose-dependent effect
[39] = test system: HOS-TE85; test: Inhibition of cell migration in human MNNG/HOS cells at 0.1 to 0.4 uM measured for 48 hrs scratch wound healing migration assay; format: functional, cell-based; settings: dose 0.1-0.4 µM

inhibition [13]: Active
inhibition [14]: Active
inhibition [21]: Active
inhibition [23]: Active
inhibition [24]: Active
Activity [27]: Active
inhibition [32]: Active
inhibition [36]: Dde
Structure (SMILES): CCN1CCN(c2ccc(Nc3ncc(C)c(Nc4ccc5cn[nH]c5c4)n3)cc2OC)CC1
inhibition [1]: Active
inhibition [2]: Dde
inhibition [3]: Dde
inhibition [4]: Active
inhibition [5]: Active
Activity [6]: Dde
Activity [7]: Active
inhibition [8]: Active
inhibition [9]: Active
Activity [10]: Active
Activity [11]: Active
Activity [12]: Active
Activity [15]: Dde
Activity [16]: Dde
inhibition [17]: Active
inhibition [18]: Dde
Activity [19]: Active
inhibition [20]: Active
inhibition [22]: Active
inhibition [25]: Active
inhibition [26]: Active
inhibition [28]: Active
inhibition [29]: Active
Activity [30]: Dde
inhibition [31]: Active
Activity [33]: Active
inhibition [34]: Dde
Activity [35]: Active
Activity [37]: Active
inhibition [38]: Dde
inhibition [39]: Active
